The record followed here is patent US9499550B2 (BRISTOL-MYERS SQUIBB COMPANY, priority 2012, dated 2016).

Bounds are passed on as bounds.

Assay [1] concerns HCV genotype 1a (H77 strain) replicon in HUH-7 cells. Briefly: HCV replicon luciferase reporter assay, genotype 1a. The assay is classed as cell-based. The note with it: Hepatitis C virus, Huh-7, 72 h, HCV genotype 1a replicon luciferase assay, 3 days incubation, range class, read-out: LE_1a (EC50, range). The procedure, abridged: (§1)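 Replicon inhibition for both genotypes was measured as Renilla luciferase signal (EnduRen, 7.5 μM final, 2 h) after 3-day, 37° C exposure of replicon-bearing HUH-7 cells in 4% FCS DMEM, 0.5% DMSO. The 1b construct carries S1179I; the 1a H77 construct carries P1496L and S2204I. Twenty-point, 3-fold dilutions were fitted four-parametrically for EC50, and CC50 was taken from multiplexed Cell Titer-Blue.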

For assay [2], the system named is HCV genotype 1b (Con1) replicon in HUH-7 cells. As to the kind of experiment: HCV replicon luciferase reporter assay, genotype 1b. The note with it: Hepatitis C virus, Huh-7, 72 h, HCV genotype 1b replicon luciferase assay, 3 days incubation, range class, read-out: LE_1b (EC50, range). The assay is classed as cell-based. The procedure, abridged: as §1
(In general: In antiviral work, replicon cells carry a viral genome segment that copies itself.)

As usually defined, the EC50 is the concentration needed to bring the measured effect to its halfway point. `C[C@@H]1CC/C=C\[C@@H]2C[C@@]2(C(=O)NS(=O)(=O)C2CC2)NC(=O)[C@@H]2C[C@@H](Oc3ncc(OCC(F)F)c4ccccc34)CN2C(=O)[C@@H](NC(=O)OC(C)(C)C(F)(F)F)[C@H](C)C1` [Compound 1032, 1,1,1-trifluoro-2-methylpropan-2-yl((2R,6S,7R,9R,13aS,14aR,16aS,Z)-14a-((cyclopropylsulfonyl)carbamoyl)-2-((4-(2,2-difluoroethoxyl)isoquinolin-1-yl)oxy)-7,9-dimethyl-5,16-dioxo-1,2,3,5,6,7,8,9,10,11,13a,14,14a,15,16,16a-hexadecahydrocyclopropa[e]pyrrolo[1,2-a][1,4]diazacyclopentadecin-6-yl)carbamate]: the EC50 in assay [1] and in assay [2] was less than 5.46 nM throughout.
In the case of `COCCOc1cnc(O[C@@H]2C[C@H]3C(=O)N[C@]4(C(=O)NS(=O)(=O)C5CC5)C[C@H]4/C=C\CC[C@@H](C)C[C@@H](C)[C@H](NC(=O)OC(C)(C)C)C(=O)N3C2)c2ccccc12` [Compound 1033, tert-butyl ((2R,6S,7R,9R,13aS,14aR,16aS,Z)-14a-((cyclopropylsulfonyl)carbamoyl)-2-((4-(2-methoxyethoxyl)isoquinolin-1-yl)oxy)-7,9-dimethyl-5,16-dioxo-1,2,3,5,6,7,8,9,10,11,13a,14,14a,15,16,16a-hexadecahydrocyclopropa[e]pyrrolo[1,2-a][1,4]diazacyclopentadecin-6-yl)carbamate], the EC50 in assay [1] and in assay [2] was less than 5.46 nM throughout.
Take `C[C@@H]1CC/C=C\[C@@H]2C[C@@]2(C(=O)NS(=O)(=O)C2CC2)NC(=O)[C@@H]2C[C@@H](Oc3ncc(OCC(F)F)c4ccccc34)CN2C(=O)[C@@H](NC(=O)O[C@H](C)C(F)(F)F)[C@H](C)C1` [Compound 1034, (R)-1,1,1-trifluoropropan-2-yl((2R,6S,7R,9R,13aS,14aR,16aS,Z)-14a-((cyclopropylsulfonyl)carbamoyl)-2-((4-(2,2-difluoroethoxyl)isoquinolin-1-yl)oxy)-7,9-dimethyl-5,16-dioxo-1,2,3,5,6,7,8,9,10,11,13a,14,14a,15,16,16a-hexadecahydrocyclopropa[e]pyrrolo[1,2-a][1,4]diazacyclopentadecin-6-yl)carbamate]: the EC50 in assay [1] and in assay [2] was less than 5.46 nM throughout.
For `C[C@H]1CC/C=C\[C@@H]2C[C@@]2(C(=O)NS(=O)(=O)C2(C)CC2)NC(=O)[C@@H]2C[C@@H](Oc3ncc(OCC(F)F)c4ccccc34)CN2C(=O)[C@@H](NC(=O)O[C@H](C)C(F)(F)F)[C@H](C)C1` [Compound 1035, (R)-1,1,1-trifluoropropan-2-yl ((2R,6S,7R,9S,13aS,14aR,16aS,Z)-2-((4-(2,2-difluoroethoxyl)isoquinolin-1-yl)oxy)-7,9-dimethyl-14a-(((1-methylcyclopropyl)sulfonyl)carbamoyl)-5,16-dioxo-1,2,3,5,6,7,8,9,10,11,13a,14,14a,15,16,16a-hexadecahydrocyclopropa[e]pyrrolo[1,2-a][1,4]diazacyclopentadecin-6-yl)carbamate], the concentration for a half-maximal effect (EC50) in assay [1] and in assay [2] was 4.82 to 103 nM in each case.
For `C[C@@H]1CC/C=C\[C@@H]2C[C@@]2(C(=O)NS(=O)(=O)C2(C)CC2)NC(=O)[C@@H]2C[C@@H](Oc3ncc(OCC(F)F)c4ccccc34)CN2C(=O)[C@@H](NC(=O)O[C@H](C)C(F)(F)F)[C@H](C)C1` [Compound 1036, (R)-1,1,1-trifluoropropan-2-yl ((2R,6S,7R,9R,13aS,14aR,16aS,Z)-2-((4-(2,2-difluoroethoxyl)isoquinolin-1-yl)oxy)-7,9-dimethyl-14a-(((1-methylcyclopropyl)sulfonyl)carbamoyl)-5,16-dioxo-1,2,3,5,6,7,8,9,10,11,13a,14,14a,15,16,16a-hexadecahydrocyclopropa[e]pyrrolo[1,2-a][1,4]diazacyclopentadecin-6-yl)carbamate], the EC50 in assay [1] and in assay [2] was less than 5.46 nM in each case.
Consider `COCCOc1cnc(O[C@@H]2C[C@H]3C(=O)N[C@]4(C(=O)NS(=O)(=O)C5(C)CC5)C[C@H]4/C=C\CC[C@H](C)C[C@@H](C)[C@H](NC(=O)OC(C)(C)C(F)(F)F)C(=O)N3C2)c2ccccc12` [Compound 1037, 1,1,1-trifluoro-2-methylpropan-2-yl((2R,6S,7R,9S,13aS,14aR,16aS,Z)-2-((4-(2-methoxyethoxyl)isoquinolin-1-yl)oxy)-7,9-dimethyl-14a-(((1-methylcyclopropyl)sulfonyl)carbamoyl)-5,16-dioxo-1,2,3,5,6,7,8,9,10,11,13a,14,14a,15,16,16a-hexadecahydrocyclopropa[e]pyrrolo[1,2-a][1,4]diazacyclopentadecin-6-yl)carbamate], for which the EC50 in assay [1] and in assay [2] was 4.82 to 103 nM throughout.
With `COCCOc1cnc(O[C@@H]2C[C@H]3C(=O)N[C@]4(C(=O)NS(=O)(=O)C5(C)CC5)C[C@H]4/C=C\CC[C@@H](C)C[C@@H](C)[C@H](NC(=O)OC(C)(C)C(F)(F)F)C(=O)N3C2)c2ccccc12` [Compound 1038, 1,1,1-trifluoro-2-methylpropan-2-yl((2R,6S,7R,9R,13aS,14aR,16aS,Z)-2-((4-(2-methoxyethoxyl)isoquinolin-1-yl)oxy)-7,9-dimethyl-14a-(((1-methylcyclopropyl)sulfonyl)carbamoyl)-5,16-dioxo-1,2,3,5,6,7,8,9,10,11,13a,14,14a,15,16,16a-hexadecahydrocyclopropa[e]pyrrolo[1,2-a][1,4]diazacyclopentadecin-6-yl)carbamate], the EC50 in assay [1] and in assay [2] was less than 5.46 nM in each case.
In the case of `COCCOc1cnc(O[C@@H]2C[C@H]3C(=O)N[C@]4(C(=O)NS(=O)(=O)C5(C)CC5)C[C@H]4/C=C\CC[C@@H](C)C[C@@H](C)[C@H](NC(=O)OC4C[C@@H]5C[C@H]5C4)C(=O)N3C2)c2ccccc12` [Compound 1039, (1S,5S)-bicyclo[3.1.0]hexan-3-yl((2R,6S,7R,9R,13aS,14aR,16aS,Z)-2-((4-(2-methoxyethoxyl)isoquinolin-1-yl)oxy)-7,9-dimethyl-14a-(((1-methylcyclopropyl)sulfonyl)carbamoyl)-5,16-dioxo-1,2,3,5,6,7,8,9,10,11,13a,14,14a,15,16,16a-hexadecahydrocyclopropa[e]pyrrolo[1,2-a][1,4]diazacyclopentadecin-6-yl)carbamate], the EC50 in assay [1] and in assay [2] was less than 5.46 nM in each case.
Consider `COCCOc1cnc(O[C@@H]2C[C@H]3C(=O)N[C@]4(C(=O)NS(=O)(=O)C5CC5)C[C@H]4/C=C\CC[C@@H](C)C[C@@H](C)[C@H](NC(=O)OC4C[C@@H]5C[C@H]5C4)C(=O)N3C2)c2ccccc12` [Compound 1040, (1S,5S)-bicyclo[3.1.0]hexan-3-yl((2R,6S,7R,9R,13aS,14aR,16aS,Z)-14a-((cyclopropylsulfonyl)carbamoyl)-2-((4-(2-methoxyethoxyl)isoquinolin-1-yl)oxy)-7,9-dimethyl-5,16-dioxo-1,2,3,5,6,7,8,9,10,11,13a,14,14a,15,16,16a-hexadecahydrocyclopropa[e]pyrrolo[1,2-a][1,4]diazacyclopentadecin-6-yl)carbamate], for which the EC50 in assay [1] and in assay [2] was less than 5.46 nM each time.
`COc1cnc(O[C@@H]2C[C@H]3C(=O)N[C@]4(C(=O)NS(=O)(=O)C5(CF)CC5)C[C@H]4/C=C\CC[C@@H](C)C[C@@H](C)[C@H](NC(=O)OC4COC4)C(=O)N3C2)c2ccccc12` [Compound 1041, oxetan-3-yl ((2R,6S,7R,9R,13aS,14aR,16aS,Z)-14a-(((1-(fluoromethyl)cyclopropyl)sulfonyl)carbamoyl)-2-((4-methoxyisoquinolin-1-yl)oxy)-7,9-dimethyl-5,16-dioxo-1,2,3,5,6,7,8,9,10,11,13a,14,14a,15,16,16a-hexadecahydrocyclopropa[e]pyrrolo[1,2-a][1,4]diazacyclopentadecin-6-yl)carbamate]: the EC50 in assay [1] is 4.82 to 103 nM; in assay [2], less than 5.46 nM.
In the case of `COc1cnc(O[C@@H]2C[C@H]3C(=O)N[C@]4(C(=O)NS(=O)(=O)C5(CF)CC5)C[C@H]4/C=C\CC[C@@H](C)C[C@@H](C)[C@H](NC(=O)OC(C)(C)C(C)(F)F)C(=O)N3C2)c2ccccc12` [Compound 1043, 3,3-difluoro-2-methylbutan-2-yl((2R,6S,7R,9R,13aS,14aR,16aS,Z)-14a-(((1-(fluoromethyl)cyclopropyl)sulfonyl)carbamoyl)-2-((4-methoxyisoquinolin-1-yl)oxy)-7,9-dimethyl-5,16-dioxo-1,2,3,5,6,7,8,9,10,11,13a,14,14a,15,16,16a-hexadecahydrocyclopropa[e]pyrrolo[1,2-a][1,4]diazacyclopentadecin-6-yl)carbamate], the half-maximal effective concentration (EC50) in assay [1] and in assay [2] was less than 5.46 nM throughout.
As for `CCC(C)(C)OC(=O)N[C@@H]1C(=O)N2C[C@H](Oc3ncc(OC)c4ccccc34)C[C@H]2C(=O)N[C@]2(C(=O)NS(=O)(=O)C3(CF)CC3)C[C@H]2/C=C\CC[C@@H](C)C[C@H]1C` [Compound 1044, tert-pentyl ((2R,6S,7R,9R,13aS,14aR,16aS,Z)-14a-(((1-(fluoromethyl)cyclopropyl)sulfonyl)carbamoyl)-2-((4-methoxyisoquinolin-1-yl)oxy)-7,9-dimethyl-5,16-dioxo-1,2,3,5,6,7,8,9,10,11,13a,14,14a,15,16,16a-hexadecahydrocyclopropa[e]pyrrolo[1,2-a][1,4]diazacyclopentadecin-6-yl)carbamate], the EC50 in assay [1] and in assay [2] was less than 5.46 nM each time.
